Results on 1 sequence are retold here after patent US5962415A, “Compositions comprising a peptide inhibitor of nuclear protein translocation and an immunosuppressant and methods of use thereof” (Bristol-Myers Squibb Co., priority 1998, dated 1999).

For test [1], the system named is 70Z/3 murine leukemia pre-B cells. The test can be described thus: LPS-stimulated surface antigen expression (κ Ig light chain, IL-2 receptor, CD45) in 70Z/3 cells. It counts as cell-based. As for the experimental part: (§1) Expression of κ Ig, CD45, CD40, and the interleukin-2 receptor was assayed using standard enzyme-linked immunosorbent assays ("ELISAs") (see, Coligan et al. (eds.) (1991) Current Protocols in Immunology, Wiley & Sons, p. 2.10 or by FACS staining to measure cell-surface markers as described in Raff (1970) Immunology 19:637). Antibodies form cell surface markers were obtained from Pharmingen Co.
The effect of the SV40MEM polypeptide was compared with two additional polypeptides, […] (SEQ ID NO:2) (the "HIV-1MEM" polypeptide), which is composed of the membrane translocation domain of FGF flanked by the NLS from the HIV-1 matrix protein and […] (SEQ ID NO:3) (the "C-MYCMEM" polypeptide), which contains the NLS from the human c-myc oncoprotein (Chelsky et al. (1989), supra, and Dang et al. (1988), supra) using murine 70Z/3 pre-B cells.
Murine 70Z/3 cells (ATCC TlD-158) are a model cell line for analyzing the effects of compounds on B-cell differentiation. In response to S. typhosa LPS (Difco) or γ-interferon, these cells differentiate from surface κ immunoglobulin negative to κ Ig positive.
[…] of: (1) a peptide containing only the FGF signal sequence AAVALLPAVLLALLAP (SEQ ID NO:4) (the "MEM" peptide); (2) a polypeptide having the FGF signal sequence and the NLS of NF-κB p50 on the carboxy terminus of the signal sequence, namely, the NF-κBMEM polypeptide; (3) the SV40MEM polypeptide comprised of L-amino acids; or (4) the SV40MEM polypeptide comprised of D-amino acids. The cells were then incubated with LPS as described in Example 2 and assayed for expression of κ light chain expression.

A further test relates to 70Z/3 murine B-cells. In words: LPS-induced CD40 expression in 70Z/3 cells. Particulars: 3 hr treatment prior to LPS, FIG. 5. It counts as cell-based. The procedure:
as §1
70Z/3 murine B-cells were treated with the SV40MEM polypeptide for 3 hr prior to activation with LPS. After activation with LPS, there was an approximately four-fold increase in CD40 expression above basal levels.

The subject of test [2] is BALB/c mice immunized with sheep red blood cells. In words: Murine sheep red blood cell assay (anti-SRBC antibody response). In kind it is in vivo. The procedure: Female BALB/c mice (6-8 weeks of age) were housed in groups of 5 in Thorne units with ad libitum access to food and water. Mice were immunized on day 0 by intravenous (IV) injection of 1×10^8 sheep red blood cells ("SRBCs"). The mice were then divided into groups of five and control solutions or inhibitory peptides were administered at various doses, either by IV injection or orally ("PO") by gavage with a 24-gauge feeding tube and routes.
The SV40MEM polypeptide was administered either intravenously (IV) or orally (PO) with the following schedule: IV administration of 5 mg/kg on days 0, 1, 2, and 3; PO administration of 1 mg/kg on days 0, 1, 2, 3, and 4. After 14 days, the mice were bled from the orbital sinus and the level of anti-SRBC antibodies were measured in the serum by ELISA. Briefly, Immulon 2 plates (Dynatech) were coated with SRBC membrane antigen (Anal. Biochem. 82:362-371 (1978)) at 5 μg/ml in 0.05 M carbonate/bicarbonate buffer (pH 9.6) and incubated overnight at 2-8° C. Plates were blocked for 1-hr at room temperature with Specimen Diluent Concentrate (Genetic Systems, Redmond, Wash.) diluted 1:10 with distilled water. The plates were washed in phosphate-buffered saline and 0.05% Tween-20 ("PBS/Tween"). Serum samples were diluted in Specimen Diluent and incubated for 1 hr at room temperature. After washing the plates in PBS/Tween, goat anti-mouse IgG1-horse radish peroxidase-conjugated ("IgG1-HRP") antibody (Southern Biotechnology, Birmingham Ala.) was added at 1:5000 dilution and incubated for 1 hr at room temperature. Plates were washed and conjugate binding was detected using 3,3',5,5'-tetramethylbenzidine ("TMB") (Genetic Systems) as the substrate. TMB was added and incubated for 15 min at room temperature. The reaction was stopped by the addition of 3 N H2 SO4. Absorbance at […] was recorded from duplicate samples using a microtiter plate reader (Bio Tek Instruments).

Another test relates to Jurkat T-cells. The test can be described thus: Apoptosis in anti-CD3-treated Jurkat T-cells. In kind it is cell-based, human. As for the experimental part: A 24-hr incubation of Jurkat T-cells with SV40MEM and anti-CD3, caused greater than 85% of the cells to apoptose.
In a further test the test system is IκB. In words: IκB degradation in LPS-activated 70Z/3 cells (Western analysis). Particulars: 2 μM, LPS 100 ng/ml for 0-120 min. It counts as cell-based, murine. The procedure: IκB is an inhibitor of NF-κB nuclear translocation. When cells are activated by the appropriate proinflammatory stimulus, e.g., cytokines or LPS, IκB is degraded. […] This experiment was done to explore the effect of the SV40MEM polypeptide on IKB degradation in murine 70Z/3 cells.
Murine 70Z/3 cells (5×10^7 cells) were incubated with the SV40MEM polypeptide (2 μM) or PBS. The two groups of cells were subdivided into aliquots and activated with LPS (100 ng/ml) for 0, 15, 30, 60, or 120 min. The cells were lysed in 200 μL lysing buffer (20 mM N-(2-hydroxyethyl)piperazine-N'-(2-ethanesulfonic acid) ("HEPES"), pH 7.2, 20 mM NaCl, 2.5 mM MgCI2, 0.1% nonylphenoxy polyethoxy ethanol ("NP-40")). The lysates were frozen until analyzed for the presence of IκB by Western analysis using an antibody directed to the carboxy terminus of IκB (Santa Cruz Corp., Santa Cruz, Calif.) according to the manufacturer's instructions.

Setting [3] is: IV 5 mg/kg days 0-3, serum day 14, FIG. 11A.
The mark [4] stands for this setting: PO 1 mg/kg days 0-4, serum day 14, FIG. 11B.

As to “PKKKRKVAAVALLPAVLLALLAPKKKRKVC [SV40MEM, FGF signal peptide hydrophobic region flanked by SV40 large T antigen NLS]”, in test [1] (LPS-stimulated, FIG. 1A), the “expression of CD45” value is “no effect” and the “expression of the interleukin-2 receptor” value is on record as “no effect”. For the same sequence, the “inhibition of κ light chain expression” value in test [1] (response to S. typhosa LPS, 1-hr pretreatment, FIG. 1A) is 75-80%. The “effect of increasing LPS concentration on the inhibitory effect” value in test [1] (κ Ig light chain production, FIG. 1C) was “can be overcome by increasing the concentration of LPS”. The “LPS-induced up-regulation of CD40” value with 70Z/3 murine B-cells is “inhibited this up-regulation of CD40”. In test [2] (setting [3]), the “specific anti-SRBC response” value is “inhibited” and the “total IgG levels” value is “no effect”. Also, in test [2] (setting [4]), the “specific anti-SRBC response” value is on record as “inhibited” and the “total IgG levels” value is “no effect”. Further, the cells undergoing apoptosis result in the test with Jurkat T-cells (24-hr incubation with SV40MEM and anti-CD3) is “greater than 85%”. In addition, the apoptosis result in the test with Jurkat T-cells (SV40MEM alone, without anti-CD3) was “Neither SV40MEM nor anti-CD3 alone caused significant apoptosis”. In the test on IκB, the “degradation of IκB” value is “no apparent degradation of IκB”.
